Data taken from patent US20050249675A1, “Mucin synthesis inhibitors” (priority 2003, published 2005).
Read-outs that look alike come from different tables or passages of the source.

Tests used:
[1] = test system: MUC5A/C secretion in hCLCA1 expressing H292 cells; assay: MUC5A/C secretion by ELLA in hCLCA1 expressing H292 cells; assay type: cell-based, human; parameters: key to ELLA: (+) = inhibition; (−) = no inhibition
H292 clone 15 cells [2] = assay: ELLA for MUC5AC, H292 clone 15 cells (Example 11); assay type: cell-based, human; conditions: Homo sapiens, NCI-H292; MUC5AC in conditioned media; 48 hours; average of 3 experiments
Procedure: ELLA (Enzyme-Linked Lectin Assay) was used to determine the inhibitory effect of compounds on mucus production by H292 clone 15 cells. H292 clone 15 cells, a subclone from human pulmonary mucoepidermoid carcinoma cells overexpressing hCLCA1, were grown to confluent, followed by incubation with increasing concentrations of compounds for 48 hours. Conditioned media were collected and MUC5AC (the major secretory mucin in lungs) content was determined by ELLA measurement as described below. 96 well microtiter plates were coated with a mouse monoclonal antibody against human MUC5AC (1-13M1, NeoMarkers), then incubated with test conditioned media. Bound MUC5AC was detected by horseradish peroxidase-conjugated soybean lectin that has a high affinity towards highly-glycosylated proteins such as MUC5AC. Conversion of peroxidase substrate TMB (Tetramethylbenzidine Base) was quantified by reading at 450 nm. O.D. (optical density) readings were plotted against concentrations of compounds. Linear regression was used to derive the concentration at which O.D. was reduced by 50% (IC50) when compared to vehicle-treated cells.

H292 clone 15 cells [3] = assay: Alamar Blue cytotoxicity; conditions: H292 clone 15 cells; 48 hours; average of 3 experiments
activated Caco2 cells [4] = assay: PAS staining for mucin in activated Caco2 cells
activated Caco2 cells [5] = conditions: Caco-2
NCI-H292/hCLCA1 cells = assay: AB/PAS staining of mucous glycoconjugates in NCI-H292/hCLCA1 cells; assay type: cell-based, human; conditions: NFA 100 μM, MFA 125 or 250 μM, talniflumate 12.5, 25 or 50 μM; vs untreated cells
Procedure: For the determination of mucous glycoconjugate production, NCI-H292/ctl and NCI-H292/hCLCA1 (AAF 15) cells were cultured in 24-well plates for 3 days. Cells were then fixed with Formalin and mucous glycoconjugates were visualized by AB/PAS staining (Sigma). […] For chloride channel blockage studies, cells were cultured in the presence of niflumic acid (NFA) (Sigma) at 100 μM concentration, mefanamic acid (MFA) at 125 or 250 μM or talniflumate at 12.5, 25 or 50 μM, or media alone.
For the determination of mucous glycoconjugate production, NCI-H292/hCLCA1 cells were cultured in 24-well plates for 3 days with at concentrations of 0 to 150 μM of the talniflumate enantiomers or media alone (control). Cells were then fixed with Formalin and mucous glycoconjugates were visualized by AB/PAS staining (Sigma). […] In this assay both enantiomers were seen to inhibit muco-glycoconjugate production at concentrations>40 μM.

[6] = test system: murine chloride channel, mCLCA1; assay: Patch clamp chloride current, HEK293 cell expressing mCLCA1; assay type: cell-based; conditions: for Chloride Current: + ionomycin + Ca
Procedure: A HEK293 cell transfected with a plasmid expressing a murine chloride channel, mCLCA1, was patch clamped and chloride current was measured over a range of voltages (V, left column) and the results are shown in Table 3 below. Each row lists currents invoked at a particular positive voltage in the absence (−) or presence (+) of ionomycin and calcium, and in the presence of an indicated concentration of diclofenac (μM). Substantial current was invoked by the addition of 2 μM ionomycin and 2 mM calcium-compare the first two columns-indicating activation of mCLCA1 by the ionomycin/calcium treatment. For example, at 100 mV of positive voltage, the chloride current was increased from 39 nA/pF to 105 nA/pF.

Compound: O=C1OC(OC(=O)c2cccnc2Nc2cccc(C(F)(F)F)c2)c2ccccc21 (single isomer, unassigned; enantiomer 1) [enantiomer 1]
- IC50, inhibition of MUC5A/C secretion ([1]; NCI-H292/hCLCA1 cells, 0 through 150 μM, 48 hours, FIG. 26): not inhibitory

Compound: O=C1OC(OC(=O)c2cccnc2Nc2cccc(C(F)(F)F)c2)c2ccccc21 (single isomer, unassigned; enantiomer 2) [enantiomer 2]
- IC50 ([1]; NCI-H292/hCLCA1 cells, 0 through 150 μM, 48 hours, FIG. 26, read-out: IC50, inhibition of MUC5A/C secretion): 40 µM

Compound: COC(=O)c1cccnc1Nc1cccc(C(F)(F)F)c1 [1 (MSI 2213), Niflumic acid methyl ester]
- ELLA ([1]; Table 2, mucin production): −

Compound: O=C(CC1OC(=O)c2ncccc21)c1cccnc1Nc1cccc(C(F)(F)F)c1 (stereo not shown) [Compound 1]
- IC50 (H292 clone 15 cells [2]): 2 µM
- Est. LD50 (Alamar Blue) (H292 clone 15 cells [3]): 11 µM

Compound: COC(=O)c1ccccc1/C=C/C(=O)c1cccnc1Nc1cccc(C(F)(F)F)c1 [Compound 2]
- IC50 (H292 clone 15 cells [2]): 4 µM
- Est. LD50 (Alamar Blue) (H292 clone 15 cells [3]): 16 µM

Compound: Cc1c(Cl)cccc1Nc1ccccc1C(=O)CC1OC(=O)c2ccccc21 (stereo not shown) [Compound 3]
- IC50 (H292 clone 15 cells [2]): 1.2 µM
- Est. LD50 (Alamar Blue) (H292 clone 15 cells [3]): 19 µM

Compound: Cc1c(Cl)cccc1Nc1ccccc1C(=O)CCc1ccccc1C(=O)O [Compound 4]
- IC50 (H292 clone 15 cells [2]): 1.6 µM
- Est. LD50 (Alamar Blue) (H292 clone 15 cells [3]): 27 µM

Compound: Cc1cccc(Nc2ccccc2C(=O)CC2OC(=O)c3ccccc32)c1C (stereo not shown) [Compound 5]
- IC50 (H292 clone 15 cells [2]): 4 µM
- Est. LD50 (Alamar Blue) (H292 clone 15 cells [3]): 35 µM

Compound: Cc1cccc(Nc2ccccc2C(=O)CCc2ccccc2C(=O)O)c1C [Compound 6]
- IC50 (H292 clone 15 cells [2]): 3 µM
- Est. LD50 (Alamar Blue) (H292 clone 15 cells [3]): 27 µM

Compound: O=C(CC1OC(=O)c2ccccc21)c1ccccc1Nc1cccc(C(F)(F)F)c1 (stereo not shown) [Compound 7]
- IC50 (H292 clone 15 cells [2]): 24 µM
- Est. LD50 (Alamar Blue) (H292 clone 15 cells [3]): 69 µM

Compound: O=C(O)c1ccccc1CCC(=O)c1ccccc1Nc1cccc(C(F)(F)F)c1 [Compound 8]
- IC50 (H292 clone 15 cells [2]): 10 µM
- Est. LD50 (Alamar Blue) (H292 clone 15 cells [3]): 30 µM

Compound: O=C1OC(CC(=O)c2cccnc2Oc2ccccc2)c2ccccc21 (stereo not shown) [Compound 9]
- IC50 (H292 clone 15 cells [2]): 5 µM
- Est. LD50 (Alamar Blue) (H292 clone 15 cells [3]): 43 µM

Compound: O=C(O)c1ccccc1CCC(=O)c1cccnc1Oc1ccccc1 [Compound 10]
- IC50 (H292 clone 15 cells [2]): 44 µM
- Est. LD50 (Alamar Blue) (H292 clone 15 cells [3]): 885 µM

Compound: O=C1OC(CC(=O)c2cccnc2Oc2cccc(Cl)c2)c2ccccc21 (stereo not shown) [Compound 11]
- IC50 (H292 clone 15 cells [2]): 2 µM
- Est. LD50 (Alamar Blue) (H292 clone 15 cells [3]): 23 µM

Compound: O=C1OC(CC(=O)c2cccnc2Oc2ccc(F)cc2F)c2ccccc21 (stereo not shown) [Compound 12]
- IC50 (H292 clone 15 cells [2]): 1.9 µM
- Est. LD50 (Alamar Blue) (H292 clone 15 cells [3]): 22 µM

Compound: O=C1OC(CC(=O)c2cccnc2Oc2cccc(Cl)c2Cl)c2ccccc21 (stereo not shown) [Compound 13]
- IC50 (H292 clone 15 cells [2]): 1 µM
- Est. LD50 (Alamar Blue) (H292 clone 15 cells [3]): 10 µM

Compound: O=C1OC(CC(=O)c2cccnc2Oc2cccc(Br)c2)c2ccccc21 (stereo not shown) [Compound 14]
- IC50 (H292 clone 15 cells [2]): 2.3 µM
- Est. LD50 (Alamar Blue) (H292 clone 15 cells [3]): 16 µM

Compound: O=C(CC1OC(=O)c2ccccc21)c1ccccc1Sc1ccccc1Cl (stereo not shown) [Compound 15]
- IC50 (H292 clone 15 cells [2]): 2.5 µM
- Est. LD50 (Alamar Blue) (H292 clone 15 cells [3]): 15 µM

Compound: O=S(=O)(O)c1cc(N=C=S)ccc1C=Cc1ccc(N=C=S)cc1S(=O)(=O)O [DIDS, 4,4′-diisothiocyanostilbene-2,2′-disulfonic acid]
- PAS positive staining mucin glycoconjugates (activated Caco2 cells [4]; activated Caco2 cells, 100 μm for NFA and 300 μm for DIDS, vs untreated cells): significantly fewer positive staining mucin glycoconjugates

Compound: O=C(O)c1ccccc1Nc1cccc(C(F)(F)F)c1 [Flufenamate]
- Mucin production by activated Caco2 cells (activated Caco2 cells [5]): inhibited

Compound: Cc1ccc(Cl)c(Nc2ccccc2C(=O)O)c1Cl [Meclofenamate]
- Mucin production by activated Caco2 cells (activated Caco2 cells [5]): partially

Compound: Cc1cccc(Nc2ccccc2C(=O)O)c1C [Mefenamate]
- PAS positive staining muco-glycoconjugates (NCI-H292/hCLCA1 cells): significantly fewer positive staining muco-glycoconjugates
- Mucin production by activated Caco2 cells (activated Caco2 cells [5]): partially

Compound: COc1ccc2cc([C@H](C)C(=O)O)ccc2c1 [Naproxen]
- Mucin production by activated Caco2 cells (activated Caco2 cells [5]): ineffective

Compound: CS(=O)(=O)Nc1ccc([N+](=O)[O-])cc1Oc1ccccc1 [Nimesulide]
- Inhibition of MUC5A/C secretion / mucin production (figure legends) ([1]; hCLCA1 expressing H292 cells, 48 hours): inhibition of MUCSA/C secretion

Compound: CC1=C(CC(=O)O)c2cc(F)ccc2/C1=C\c1ccc([S+](C)[O-])cc1 (stereo not shown) [Sulindac]
- Mucin production by activated Caco2 cells (activated Caco2 cells [5]): ineffective

Compound: Cc1c(Cl)cccc1Nc1ccccc1C(=O)O [Tolfenamate]
- Mucin production by activated Caco2 cells (activated Caco2 cells [4]; FIG. 2): inhibited

Compound: O=C(O)Cc1ccccc1Nc1c(Cl)cccc1Cl [diclofenac]
- Inhibition of chloride channel activity ([6]; diclofenac 5 μM to 50 μM): did not inhibit chloride channel activity
- Chloride Current ([6]; diclofenac 5 μM, 0 mV): 20 nA/pF
- Chloride Current ([6]; diclofenac 5 μM, 20 mV): 36 nA/pF
- Chloride Current ([6]; diclofenac 5 μM, 40 mV): 53 nA/pF
- Chloride Current ([6]; diclofenac 5 μM, 60 mV): 72 nA/pF
- Chloride Current ([6]; diclofenac 5 μM, 80 mV): 92 nA/pF
- Chloride Current ([6]; diclofenac 5 μM, 100 mV): 115 nA/pF
- Chloride Current ([6]; diclofenac 20 μM, 0 mV): 20 nA/pF
- Chloride Current ([6]; diclofenac 20 μM, 20 mV): 34 nA/pF
- Chloride Current ([6]; diclofenac 20 μM, 40 mV): 51 nA/pF
- Chloride Current ([6]; diclofenac 20 μM, 60 mV): 69 nA/pF
- Chloride Current ([6]; diclofenac 20 μM, 80 mV): 88 nA/pF
- Chloride Current ([6]; diclofenac 20 μM, 100 mV): 109 nA/pF
- Chloride Current ([6]; diclofenac 50 μM, 0 mV): 19 nA/pF
- Chloride Current ([6]; diclofenac 50 μM, 20 mV): 33 nA/pF
- Chloride Current ([6]; diclofenac 50 μM, 40 mV): 48 nA/pF
- Chloride Current ([6]; diclofenac 50 μM, 60 mV): 66 nA/pF
- Chloride Current ([6]; diclofenac 50 μM, 80 mV): 85 nA/pF
- Chloride Current ([6]; diclofenac 50 μM, 100 mV): 106 nA/pF
